Source: US9707196B2, “Treatment agent and/or prophylactic agent for side effects of cancer drugs” (SBI Pharmaceuticals Co., Ltd., priority 2011, dated 2017)

What was measured:
SD rats [1] = test: Side effects accompanying cisplatin administration in rats, with or without ALA (Example 1: survival, kidney HE staining, hair luster, stool state, activity); type: in vivo, rat; conditions: for Damage to the kidney (HE staining, Day 16): FIG. 2
Protocol: Forty-four 6 weeks-old SD rats (male) were purchased from Japan SLC, Inc. They were used for experiments after conditioning for 7 days after purchase.
The experiment duration was a total of 16 days, and experiment groups were divided into the following 5 groups I to V according to the ALA administration condition. […] CDDP administration dose was 8.0 mg/kg of body weight, and each rat was intraperitoneally administered. Saline was administered instead of cisplatin to Group I as the negative control group. ALA was also administered to Groups III, […], and V according to the following schedule. On the other hand, no ALA was administered to the positive control group (Group II). ALA administration to Groups III, IV, and V was performed by daily oral administration of 10 mg/kg of body weight of ALA hydrochloride salt+15.7 mg/kg of body weight of sodium ferrous citrate (dissolved in distilled water and sodium bicarbonate).
(ALA Administration Conditions of Groups I to V)
Group I (negative control group): Saline was administered on Day 6 from the start of experiment. They were otherwise kept as usual. n=4
Group II (positive control group): CDDP was administered on Day 6 from the start of experiment. They were otherwise kept as usual. n=10
Group III (“pre-administration group”): ALA was administered for a total of 5 days from the starting day of experiment to Day 5. CDDP was also administered on Day 6. They were otherwise kept as usual. n=10
Group IV (“post-administration group”): On Day 6 from the start of experiment, ALA was administered, and then CDDP was administered. ALA was also administered for 10 days from Day 6 to Day 15. They were otherwise kept as usual. n=9
Group V (“full administration group”): ALA was administered for 15 days from the starting day of experiment to Day 15. On Day 6, ALA was administered, and then CDDP was administered. n=9
Blood was collected every two days for 15 days from the starting day of experiment to Day 15. Observation of hair luster, stool state, and activity of rats was also carried out. Each rat was also dissected on Day 16, and the kidney was resected. Kidney sections were prepared after resection, and observed under a microscope after HE staining.
Side effects were strongly observed from Day 9 to Day 13 from the starting day of experiment. Accordingly, the state on Days 9, 11, and 13 were scored and evaluated. Hair luster here evaluates the side effect related to skin symptoms. Stool state evaluates the side effect related to the gastrointestinal system. Activity evaluates the side effect related to general symptoms, in particular evaluates the side effect related to malaise.
Each item was evaluated for each mouse by the following criteria, and is the numerical value of the sum of the three days (Days 9, 11, and 13) divided by the number of evaluation subject mice.
5: Very good, 4: ordinarily state, 3: slightly poor, 2: poor, and 1: death
5: Ordinarily stool, 4: small amount of stool, 3: slight diarrhea, 2: diarrhea, and 1: death
5: Ordinarily state, 4: weak movement, 3: slight movement, 2: no movement, and 1: death

[2] = system: T24 cells (human transitional cell bladder cancer cells); test: Cell toxicity of cisplatin against T24 cells with or without ALA (WST-8, Cell Counting Kit-8); type: cell-based; conditions: ALA hydrochloride salt 200 μM + sodium ferrous citrate 100 μM, any timing, FIG. 8
Protocol: (§1) It was validated whether or not ALA administration has an influence on the cell toxicity (anticancer effect) of anticancer agent against cancer cells.
(§2) The following cancer cells were employed in this experiment: T24 cells (human transitional cell bladder cancer cells) and 253J-BV cells (human urinary tract epithelium cancer cells). […] ALA hydrochloride salt was employed as ALA. In addition, sodium ferrous citrate was administered together with ALA administration.
(§3) Cell toxicity at each concentration was compared in the following Groups I to IV.
(§4) Group I: “No addition group,” i.e. the group with no ALA administered
(§5) Group II: “Pre-administration group,” i.e. the group with ALA administered only “during preculture”
(§6) (1) T24 cells (human transitional cell bladder cancer cells) or 253J-BV cells (human urinary tract epithelium cancer cells) were cultured with a 10 cm dish in DMEM medium comprising 10% FBS to a subconfluent state. They were then collected by trypsin treatment.
(§7) (2) For test groups Group I (no addition group) and Group III (simultaneous administration group), the cells collected in (1) were suspended to a density of 50000 cells/ml in DMEM medium comprising 10% FBS. […]

[3] = system: 253J-BV cells (human urinary tract epithelium cancer cells); test: Cell toxicity of cisplatin against 253J-BV cells with or without ALA (WST-8, Cell Counting Kit-8); type: cell-based; conditions: ALA hydrochloride salt 200 μM + sodium ferrous citrate 100 μM, any timing, FIG. 9
Protocol: as §1, §2, §3, §4, §5, §6, §7

SD rats [4] = test: Side effects on the kidney (nephrotoxicity) and weight loss accompanying cisplatin administration in rats, with or without ALA (Example 2); type: in vivo, rat; conditions: for Effect on side effects of anticancer agent on the kidney: FIGS. 4 to 6
Protocol: Serum creatinine and urea nitrogen value (BUN) were measured from blood samples. Moreover, urine protein was measured from urine samples.
Weight loss which is a side effect on general symptoms as well as a side effect related to the gastrointestinal system was also observed at the same time.
Forty-six 6 weeks-old SD rats (male) were purchased from Japan SLC, Inc. They were conditioned for 7 days after purchase. Body weight measurement, blood collection, and urine collection of each rat were performed at the end of the conditioning period. The experiment was started on the next day with 44 rats. Two individuals that had poor serum creatinine, urea nitrogen value (BUN), and urine protein value at the measurement after conditioning were excluded from the experiment.
In this experiment, experiment groups were divided into the following 4 groups I to IV according to the ALA administration condition. The experiment was otherwise performed similarly to Example 1.
Group I (negative control group): Saline was administered on Day 6 from the start of experiment. They were otherwise kept as usual. n=8
Group II (positive control group): CDDP was administered on Day 6 from the start of experiment. They were otherwise kept as usual. n=14
Group III (“post-administration group”): On Day 6 from the start of experiment, ALA was administered, and then CDDP was administered. ALA was also administered for 10 days from Day 6 to Day 15. They were otherwise kept as usual. n=10
Group IV (“full administration group”): ALA was administered for 15 days from the starting day of experiment to Day 15. On Day 6, ALA was administered, and then CDDP was administered. n=11
The body weight of each rat was measured, and blood and urine collection was carried out on starting day of experiment, Days 6, 7, 9, 11, 13, and 15. The collected blood samples were used for measuring serum creatinine and urea nitrogen value (BUN). In addition, the collected urine samples were used for measuring urine protein. Each rat was also dissected on Day 16, and the kidney was resected and observed.

[5] = Case of an advanced colon cancer patient taking aminolevulinic acid phosphate salt and sodium ferrous citrate concurrently with anticancer agent therapy (Example 4); type: in vivo, human; conditions: one patient
[6] = Group III (pre-administration): ALA hydrochloride salt 10 mg/kg + sodium ferrous citrate 15.7 mg/kg oral daily to Day 5, CDDP 8.0 mg/kg i.p. Day 6, sum of scores of Days 9, 11, 13 per animal
[7] = Group IV (post-administration): ALA hydrochloride salt 10 mg/kg + sodium ferrous citrate 15.7 mg/kg oral daily Day 6 to Day 15, CDDP 8.0 mg/kg i.p. Day 6, sum of scores of Days 9, 11, 13 per animal
[8] = Group V (full administration): ALA hydrochloride salt 10 mg/kg + sodium ferrous citrate 15.7 mg/kg oral daily from starting day to Day 15, CDDP 8.0 mg/kg i.p. Day 6, sum of scores of Days 9, 11, 13 per animal
[9] = Groups III, IV and V (ALA + CDDP) versus Group II, FIG. 1

NCC(=O)CCC(=O)O [ALA, 5-aminolevulinic acid]
Damage to the kidney (HE staining, Day 16) (SD rats [1]; ALA-administered groups + CDDP): alleviated the damage to the kidney
Damage to the kidney (HE staining, Day 16) (SD rats [1]; Group III (pre-administration) and Group IV (post-administration) + CDDP): a certain effect
Rat survival rate (SD rats [1]; Group III (pre-administration) or Group IV (post-administration) + CDDP, FIG. 1): a certain suppression effect
Activity (final evaluation) (SD rats [1]; [6]): 8.10
Hair luster (final evaluation) (SD rats [1]; [6]): 8.10
Overall evaluation (final evaluation) (SD rats [1]; [6]): 7.50
Stool state (final evaluation) (SD rats [1]; [6]): 8.90
Activity (final evaluation) (SD rats [1]; [7]): 9.56
Hair luster (final evaluation) (SD rats [1]; [7]): 8.89
Overall evaluation (final evaluation) (SD rats [1]; [7]): 8.78
Stool state (final evaluation) (SD rats [1]; [7]): 10.78
Damage to the kidney (HE staining, Day 16) (SD rats [1]; Group V (full administration) + CDDP): the most effective
Activity (final evaluation) (SD rats [1]; [8]): 11.33
Hair luster (final evaluation) (SD rats [1]; [8]): 11.33
Overall evaluation (final evaluation) (SD rats [1]; [8]): 9.67
Stool state (final evaluation) (SD rats [1]; [8]): 13.33
Rat survival rate (SD rats [1]; Group V (full administration, ALA throughout) + CDDP, FIG. 1): highest survival rate
Rat survival rate until Day 16 (SD rats [1]; [9]): reduction in the survival rate until Day 16 could be suppressed
Timing of the start of reduction in the survival rate (SD rats [1]; [9]): the timing of the start of reduction in the survival rate was delayed
Influence of ALA administration on anticancer effect of cisplatin [2]: hardly attenuated
Influence of ALA administration on anticancer effect of cisplatin [3]: hardly attenuated
Effect on weight loss (SD rats [4]; Group III (post-administration) + CDDP, FIG. 3): a certain effect
Effect on side effects of anticancer agent on the kidney (SD rats [4]; Group III (post-administration) + CDDP): a certain effect
Decrease in body weight (SD rats [4]; Group III (post-administration) and Group IV (full administration), ALA + CDDP, FIG. 3): decreased in body weight due to the side effects from anticancer agent was suppressed
Re-increase of body weight (SD rats [4]; Group III and Group IV, ALA + CDDP, FIG. 3): re-increase of body weight was observed on Day 5 and after
Urine protein value (SD rats [4]; Group III and Group IV, ALA + CDDP, slight increase on Day 3, FIG. 6): a value not much different from the negative control group was maintained
Serum creatinine value (SD rats [4]; Group III and Group IV, ALA + CDDP, slight increase on Day 5, FIG. 4): a value not much different from the negative control group was maintained
Urea nitrogen value (BUN) (SD rats [4]; Group III and Group IV, ALA + CDDP, slight increase on Day 5, FIG. 5): a value not much different from the negative control group was maintained
Effect on weight loss (SD rats [4]; Group IV (full administration) + CDDP, FIG. 3): the most effective
Effect on side effects of anticancer agent on the kidney (SD rats [4]; Group IV (full administration) + CDDP): the most effective

N.N.[Cl][Pt][Cl] [cisplatin, reference compound]
Rat survival rate (SD rats [1]; Group II (positive control): CDDP 8.0 mg/kg i.p. Day 6, no ALA, FIG. 1): reduction in the survival rate was seen on Day 9
Hair luster (final evaluation) (SD rats [1]; Group II (positive control): CDDP 8.0 mg/kg i.p. on Day 6, no ALA, sum of scores (5 best, 1 death) of Days 9, 11, 13 divided by number of animals): 7.80

aminolevulinic acid phosphate salt
Time for which anticancer agent therapy could be continued after the surgery ([5]; FOLFOX, FOLFIRI and Avastin with oral 50 mg aminolevulinic acid phosphate salt + 57.4 mg sodium ferrous citrate per day): one year
Hemoglobin ([5]; Jan. 28, 2011, about 1 year and 5 months after starting oral 50 mg aminolevulinic acid phosphate salt + 57.4 mg sodium ferrous citrate per day, just before surgery 9.80): 12.20 g/dL
Number of Leukocytes ([5]; Jan. 28, 2011, about 1 year and 5 months after starting oral 50 mg aminolevulinic acid phosphate salt + 57.4 mg sodium ferrous citrate per day, just before surgery 13.20): 6200 µL⁻¹
Number of Erythrocytes ([5]; Jan. 28, 2011, about 1 year and 5 months after starting oral 50 mg aminolevulinic acid phosphate salt + 57.4 mg sodium ferrous citrate per day, just before surgery (Aug. 19, 2009) 2.97): 3.44e+06 µL⁻¹
Anemia improvement effect ([5]; about 1 year and 5 months after starting intake, with sodium ferrous citrate): anemia as a side effect of administration of anticancer agent is improved
Survival after surgery ([5]; declared life expectancy 3 months, oral 50 mg aminolevulinic acid phosphate salt + 57.4 mg sodium ferrous citrate per day): one and a half years
